Test results as given in patent publication US7615639B2, “1-pyridyl-benzofuro[3,2-b]pyridin-2(1H)-ones” (Tibotec Pharmaceuticals, Ltd., priority 2004, dated 2009).

Each molecule was assayed on HIV (assay: Cellular assay: anti-viral activity in HIV-infected MT4 cells (MTT read-out)). Conditions: Human immunodeficiency virus 1, 120 h, five days incubation, MTT cell viability, negative logarithm of EC50 (protection of 50% of cells from cytopathogenic effect of the virus).
Format: cell-based
Description: The compounds of the present invention were examined for anti-viral activity in a cellular assay, which was performed according to the following procedure.
HIV- or mock-infected MT4 cells were incubated for five days in the presence of various concentrations of the inhibitor. At the end of the incubation period, the replicating virus in the control cultures has killed all HIV-infected cells in the absence of any inhibitor. Cell viability was determined by measuring the concentration of MTT, a yellow, water soluble tetrazolium dye that is converted to a purple, water insoluble formazan in the mitochondria of living cells only. Upon solubilization of the resulting formazan crystals with isopropanol, the absorbance of the solution was monitored at 540 nm. The values correlate directly to the number of living cells remaining in the culture at the completion of the five day incubation. The inhibitory activity of the compound was monitored on the virus-infected cells and was expressed as EC50 and EC90. These values represent the amount of the compound required to protect 50% and 90%, respectively, of the cells from the cytopathogenic effect of the virus. The toxicity of the compound was measured on the mock-infected cells and was expressed as CC50, which represents the concentration of compound required to inhibit the growth of the cells by 50%. The selectivity index (SI) (ratio CC50/EC50) is an indication of the selectivity of the anti-HIV activity of the inhibitor. Wherever results are reported as e.g. pEC50 or pCC50 values, the result is expressed as the negative logarithm of the result expressed as EC50 or CC50 respectively.

Row | SMILES | EC50 [µM]
1 | Cc1cc(-n2c(=O)c(C#N)cc3c2c2ccccc2n3C)cnc1Cl [Compound 34, 1-(6-Chloro-5-methyl-pyridin-3-yl)-5-methyl-2-oxo-2,5-dihydro-1H-pyrido[3,2-b]-indole-3-carbonitrile] | 0.794
2 | Cn1c2ccccc2c2c1cc(C#N)c(=O)n2-c1cnc2ccccc2c1 [Compound 9] | 2.51
3 | Cn1c2ccc(O)cc2c2c1cc(C#N)c(=O)n2-c1ccc(Cl)nc1 [Compound 43, 1-(6-Chloro-pyridin-3-yl)-8-hydroxy-5-methyl-2-oxo-2,5-dihydro-1H-pyrido[3,2-b]-indole-3-carbonitrile] | 3.98
4 | Cn1c2ccccc2c2c1cc(C#N)c(=O)n2-c1cncnc1 [Compound 11] | 20
5 | Cn1c2ccccc2c2c1cc(C#N)c(=O)n2-c1ccc(F)nc1 [Compound 36] | 7.94
6 | Cn1c2ccccc2c2c1cc(C#N)c(=O)n2-c1ccc(Cl)nc1 [Compound 7, 1-(6-Chloropyridin-3-yl)-5-methyl-2-oxo-2,5-dihydro-1H-pyrido[3,2-b]indole-3-carbonitrile] | 0.794
7 | Cc1ccc(-n2c(=O)c(C#N)cc3c2c2ccccc2n3C)cn1 [Compound 32, 5-Methyl-1-(6-methyl-pyridin-3-yl)-2-oxo-2,5-dihydro-1H-pyrido[3,2-b]indole-3-carbonitrile] | 1
8 | Cn1c2ccccc2c2c1cc(C#N)c(=O)n2-c1ccc(Br)nc1 [Compound 28] | 3.16
9 | N#Cc1cc2[nH]c3ccccc3c2n(-c2ccnc(Cl)c2)c1=O [Compound 19] | 15.8
10 | Cn1c2ccccc2c2c1cc(C#N)c(=O)n2-c1ccc2nc(C(F)(F)F)cn2c1 [Compound 21] | 12.6
11 | Cn1ccc2cc(-n3c(=O)ccc4c3c3ccccc3n4C)ccc21 [Compound 17] | 6.31
12 | Cn1c2ccccc2c2c1ccc(=O)n2-c1cc2ccccc2s1 [Compound 6] | 12.6
13 | Cn1c2ccccc2c2c1ccc(=O)n2-c1cnc2ccccc2c1 [Compound 27] | 6.31
14 | Cn1c2ccccc2c2c1cc(C#N)c(=O)n2-c1ccc(C#N)nc1 [Compound 14] | 10
15 | Cn1c2ccccc2c2c1cc(C#N)c(=O)n2-c1ccnc(C(N)=O)c1 [Compound 20] | 5.01
16 | N#Cc1cc2[nH]c3ccccc3c2n(-c2ccc(Cl)nc2)c1=O [Compound 26] | 2.51
17 | COc1ncc(-n2c(=O)c(C#N)cc3c2c2ccccc2n3C)cn1 [Compound 37] | 2.51
18 | COc1ccc(-n2c(=O)c(C#N)cc3c2c2ccccc2n3C)cn1 [Compound 35] | 3.16
